{"source": "paper PMC5706100", "about": "(Theranostics, 2017)", "key": {"EAhy926 cells": {"tested_on": "EAhy926 cells", "assay": "Immunofluorescence staining of FITC-GEBP11 in hypoxia-treated cells", "assay_type": "cell-based", "details": "FITC-labelled peptide, after hypoxia treatment"}, "[1]": {"tested_on": "CD31-positive plaque neovascularization", "assay": "Immunofluorescence of FITC-GEBP11 and CD31 in plaque tissue sections", "set-up": "species or system rabbit"}}, "note": "Positions of bridges follow the written chain, without caps; N, C: chain ends. No end group written: not given here."}
{"sequence": "CTKNSYLMC (disulfide 1-9 (inferred)) [GEBP11 peptide]", "values": [{"measurement": "binding affinity to EAhy926 cells", "setting": "EAhy926 cells", "result": "high binding affinity"}, {"measurement": "cell selectivity by immunofluorescence staining", "setting": "[1]; endothelial cells versus macrophages", "result": "selectively target endothelial cells rather than macrophages"}, {"measurement": "co-localization with CD31 in plaque section", "setting": "[1]; rabbit plaque tissue sections, confocal microscopy", "result": "well co-localized with CD31-positive plaque neovascularization and vasa vasorum"}]}
